Earlier results as cited in patent US6488917B2, “Optical brighteners as bleaching agents” (L'Oreal, priority 1998, dated 2002).

Tested on: melanocytes
Details: known from the prior art

Oc1ccc(O)cc1 [hydroquinone]
cytotoxicity towards melanocytes: known for its cytotoxicity towards melanocytes
